Reference: patent US20200268702A1, “METHODS OF TREATING […]” (Amarin Pharmaceuticals Ireland Limited, priority 2013, published 2020)

Test system: patients with fasting triglyceride levels >500 mg/dL
Assay: MARINE study: 12-week placebo-controlled study of AMR101, metabolic syndrome subset
Format: in vivo, human
Conditions: 12 weeks, subjects with metabolic syndrome
Method: A multi-center, placebo-controlled randomized, double-blind, 12-week study with an open-label extension was performed to evaluate the efficacy and safety of AMR101 in patients with fasting triglyceride levels >500 mg/dL. The primary objective of the study was to determine the efficacy of AMR101 2 g daily and 4 g daily, compared to placebo, in lowering fasting TG levels in patients with fasting TG levels 500 mg/dL and 1500 mg/dL (5.65 mmol/L and 16.94 mmol/L).
The population for this study was men and women (women of childbearing potential will need to be on contraception or practice abstinence) >18 years of age with a body mass index ≤45 kg/m^2 who were not on lipid-altering therapy or were currently on lipid-altering therapy. Patients currently on statin therapy (with or without ezetimibe) were evaluated by the investigator as to whether this therapy can be safely discontinued at screening, or if it should be continued. If statin therapy (with or without ezetimibe) was to be continued, dose(s) must have been stable […] prior to randomization. Patients taking non-statin, lipid-altering medications (niacin >200 mg/day, fibrates, fish oil, other products containing omega-3 fatty acids, or other herbal products or dietary supplements with potential lipid-altering effects), either alone or in combination with statin therapy (with or without ezetimibe), must have been able to safely discontinue non-statin, lipid-altering therapy at screening.
Approximately 240 patients were randomized at approximately 50 centers in North America, South America, Central America, Europe, India, and South Africa. The study was a 58- to 60-week, Phase 3, multi-center study consisting of 3 study periods: (1) A 6- to 8-week screening period that included a diet and lifestyle stabilization and washout period and a TG qualifying period; (2) A 12-week, double-blind, randomized, placebo-controlled treatment period; and (3) A 40-week, open-label, extension period.
After confirmation of qualifying fasting TG values, eligible patients entered a 12-week, randomized, double-blind treatment period. At Visit 4 (Week 0), patients were randomly assigned to 1 of the following treatment groups: • AMR101 2 g daily, • AMR101 4 g daily, or • Placebo.
Eligible patients were randomly assigned at Visit 4 (Week 0) to receive orally AMR101 2 g daily, AMR101 4 g daily, or placebo for the 12-week double-blind treatment period. AMR101 was provided in 1 g liquid-filled, oblong, gelatin capsules. The matching placebo capsule was filled with light liquid paraffin and contained 0 g of AMR101. During the double-blind treatment period, patients took 2 capsules (AMR101 or matching placebo) in the morning and 2 in the evening for a total of 4 capsules per day. Patients in the AMR101 2 g/day treatment group received 1 AMR101 1 g capsule and 1 matching placebo capsule in the morning and in the evening. Patients in the AMR101 4 g/day treatment group received 2 AMR101 1 g capsules in the morning and evening.
The primary efficacy variable for the double-blind treatment period was percent change in TG from baseline to Week 12 endpoint. […]

## CC/C=C\C/C=C\C/C=C\C/C=C\C/C=C\CCCC(=O)OCC [AMR101, ethyl eicosapentaenoate]
2 g/day, No statins
  Apo B, Change from Baseline, %: 2.8%
  Apo B, End of Treatment, median (IQR): 121 mg/dL
  Apo B, Median % Change From Baseline vs Placebo: −1.8%
  HDL-C, Change from Baseline, %: 0.0%
  HDL-C, End of Treatment, median (IQR): 26 mg/dL
  HDL-C, Median % Change From Baseline vs Placebo: 0.3%
  LDL-C, Change from Baseline, %: 1.9%
  LDL-C, End of Treatment, median (IQR): 95 mg/dL
  LDL-C, Median % Change From Baseline vs Placebo: 2.8%
  Non-HDL-C, Change from Baseline, %: −1.1%
  Non-HDL-C, End of Treatment, median (IQR): 218 mg/dL
  Non-HDL-C, Median % Change From Baseline vs Placebo: −7.8%
  TG, Change from Baseline, %: −10.1%
  TG, End of Treatment, median (IQR): 586 mg/dL
  TG, Median % Change From Baseline vs Placebo: −17.2%
  hsCRP, Change from Baseline, %: 38.0%
  hsCRP, End of Treatment, median (IQR): 2.5 (3.10) mg/L
  hsCRP, Median % Change From Baseline vs Placebo: −7.1%
2 g/day, Statins
  Apo B, Change from Baseline, %: −0.9%
  Apo B, End of Treatment, median (IQR): 105 mg/dL
  Apo B, Median % Change From Baseline vs Placebo: −9.1%
  HDL-C, Change from Baseline, %: 0.0%
  HDL-C, End of Treatment, median (IQR): 30 mg/dL
  HDL-C, Median % Change From Baseline vs Placebo: 4.2%
  LDL-C, Change from Baseline, %: −3.8%
  LDL-C, End of Treatment, median (IQR): 77.5 mg/dL
  LDL-C, Median % Change From Baseline vs Placebo: 6.2%
  Non-HDL-C, Change from Baseline, %: 10.1%
  Non-HDL-C, End of Treatment, median (IQR): 206 mg/dL
  Non-HDL-C, Median % Change From Baseline vs Placebo: −10.9%
  TG, Change from Baseline, %: 14.5%
  TG, End of Treatment, median (IQR): 708 mg/dL
  TG, Median % Change From Baseline vs Placebo: −33.0%
  hsCRP, Change from Baseline, %: 14.3%
  hsCRP, End of Treatment, median (IQR): 1.6 (2.20) mg/L
  hsCRP, Median % Change From Baseline vs Placebo: −36.6%
2 g/day, Total
  Apo B, Change from Baseline, %: 2.5%
  Apo B, End of Treatment, median (IQR): 117 mg/dL
  Apo B, Median % Change From Baseline vs Placebo: −3.3%
  HDL-C, Change from Baseline, %: 0.0%
  HDL-C, End of Treatment, median (IQR): 28 mg/dL
  HDL-C, Median % Change From Baseline vs Placebo: 0.9%
  LDL-C, Change from Baseline, %: −2.5%
  LDL-C, End of Treatment, median (IQR): 94 mg/dL
  LDL-C, Median % Change From Baseline vs Placebo: 3.6%
  Non-HDL-C, Change from Baseline, %: 0.0%
  Non-HDL-C, End of Treatment, median (IQR): 214 mg/dL
  Non-HDL-C, Median % Change From Baseline vs Placebo: −8.3%
  TG, Change from Baseline, %: −4.3%
  TG, End of Treatment, median (IQR): 606 mg/dL
  TG, Median % Change From Baseline vs Placebo: −19.1%
  hsCRP, Change from Baseline, %: 25.1%
  hsCRP, End of Treatment, median (IQR): 2.4 (3.20) mg/L
  hsCRP, Median % Change From Baseline vs Placebo: −14.5%
4 g/day, No statins
  Apo B, Change from Baseline, %: −4.3%
  Apo B, End of Treatment, median (IQR): 123 mg/dL
  Apo B, Median % Change From Baseline vs Placebo: −9.2%
  HDL-C, Change from Baseline, %: 0.0%
  HDL-C, End of Treatment, median (IQR): 25 mg/dL
  HDL-C, Median % Change From Baseline vs Placebo: −4.2%
  LDL-C, Change from Baseline, %: −1.5%
  LDL-C, End of Treatment, median (IQR): 92 mg/dL
  LDL-C, Median % Change From Baseline vs Placebo: −2.0%
  Non-HDL-C, Change from Baseline, %: −9.9%
  Non-HDL-C, End of Treatment, median (IQR): 220 mg/dL
  Non-HDL-C, Median % Change From Baseline vs Placebo: −18.5%
  TG, Change from Baseline, %: −26.6%
  TG, End of Treatment, median (IQR): 582 mg/dL
  TG, Median % Change From Baseline vs Placebo: −28.5%
  hsCRP, Change from Baseline, %: 0.0%
  hsCRP, End of Treatment, median (IQR): 2.3 (2.30) mg/L
  hsCRP, Median % Change From Baseline vs Placebo: −78.0%
4 g/day, No statins, listed as IPE
  hsCRP, Median % Change From Baseline vs Placebo: −27.6%
4 g/day, Statins
  Apo B, Change from Baseline, %: −1.6%
  Apo B, End of Treatment, median (IQR): 100 mg/dL
  Apo B, Median % Change From Baseline vs Placebo: −9.0%
  HDL-C, Change from Baseline, %: −5.2%
  HDL-C, End of Treatment, median (IQR): 29 mg/dL
  HDL-C, Median % Change From Baseline vs Placebo: 0.3%
  LDL-C, Change from Baseline, %: −11.4%
  LDL-C, End of Treatment, median (IQR): 72.5 mg/dL
  LDL-C, Median % Change From Baseline vs Placebo: −4.3%
  Non-HDL-C, Change from Baseline, %: −7.6%
  Non-HDL-C, End of Treatment, median (IQR): 172 mg/dL
  Non-HDL-C, Median % Change From Baseline vs Placebo: −27.4%
  TG, Change from Baseline, %: −29.1%
  TG, End of Treatment, median (IQR): 457 mg/dL
  TG, Median % Change From Baseline vs Placebo: −62.6%
  hsCRP, Change from Baseline, %: −35.1%
  hsCRP, End of Treatment, median (IQR): 2.7 (3.70) mg/L
  hsCRP, Median % Change From Baseline vs Placebo: −27.6%
4 g/day, Statins, listed as IPE
  hsCRP, Median % Change From Baseline vs Placebo: −78.0%
4 g/day, Total
  Apo B, Change from Baseline, %: −3.5%
  Apo B, End of Treatment, median (IQR): 120 mg/dL
  HDL-C, Change from Baseline, %: 0.0%
  HDL-C, End of Treatment, median (IQR): 26 mg/dL
  HDL-C, Median % Change From Baseline vs Placebo: −3.0%
  LDL-C, Change from Baseline, %: −4.1%
  LDL-C, End of Treatment, median (IQR): 89 mg/dL
  Non-HDL-C, Change from Baseline, %: −9.6%
  Non-HDL-C, End of Treatment, median (IQR): 207 mg/dL
  TG, Change from Baseline, %: −26.8%
  TG, End of Treatment, median (IQR): 504 mg/dL
  hsCRP, Change from Baseline, %: −2.9%
  hsCRP, End of Treatment, median (IQR): 2.4 (2.95) mg/L
4 g/day, Total, listed as IPE
  Apo B, Median % Change From Baseline vs Placebo: −9.1%
  LDL-C, Median % Change From Baseline vs Placebo: −3.2%
  Non-HDL-C, Median % Change From Baseline vs Placebo: −19.9%
  TG, Median % Change From Baseline vs Placebo: −35.0%
  hsCRP, Median % Change From Baseline vs Placebo: −40.0%
